What is called pIC50 is −log10 of the IC50, conventionally taken in molar units. Low values mean a high IC50, high ones a low IC50. The AUC is the area under the concentration-time curve, a measure of exposure. High values mean high exposure, low ones low exposure. As a reminder, the Cmax is the highest concentration seen after dosing. As usually defined, the half-life is how long it takes for the measured level to halve. Read a high half-life as slow decline.

From patent US20260274800A1, “Heterocyclic Compound And Use Thereof In Medicine” (Kangbaida (Sichuan) Biotechnology Co., Ltd., priority 2023, published 2026) come the findings set out here.

In one data set the target is T1, MRGPRX4 (Homo sapiens, UniProt Q96LA9).
T1 construct: expressed in transfected cells
In words: Detection of MRGPRX4 activity (IP1 HTRF, deoxycholic acid stimulation). The format is cell-based. As to conditions: HEK-293 cells stably expressing MRGPRX4; compound 45 min, then deoxycholic acid 45 min; IP1 content by HTRF. On the procedure: HEK-293 cells stably expressing MRGPRX4 were cultured in a DMEM medium containing 10% of FBS and 1% of a double antibody under the culture conditions of 37° C. and 5% CO2. Cells in the exponential growth phase were collected and inoculated into a 384-well plate at an inoculation density of 2×10^4 cells/well, with 10 μL per well. 2 μL/well of a gradient-diluted compound was added and co-incubated with the cells for 45 min. After the incubation was complete, 2 μL/well of deoxycholic acid (MCE, Cat: #HY-N0593) was added to continue the incubation for 45 min. After the incubation was complete, IP-one Gq kit (PE, Cat: #62IPAPEB) was used to detect the content of IP1 according to the instructions. HTRF values were substituted into GraphPad 8.0, and IC50 was calculated by fitting.
Background: TR-FRET usually uses a lanthanide donor and a delayed reading to cut background.

Data set [1] can be described thus: Study of pharmacokinetics in mice in vivo. On the set-up: species or system C57BL/6 mice. As to conditions: male, C57BL/6, mouse, po (intragastric), 50 mg/kg, plasma. On the procedure: An appropriate amount of the test substance was weighed, and the test substance was prepared into a 2 mg/mL transparent clear solution using 5% DMSO+5% HS-15 (Solutol HS-15)+90% D5W (5% glucose) for intravenous administration. The test substance was prepared into a 5 mg/mL uniform suspension using 5% DMSO+5% HS-15+90% PBS for intragastric administration.
18 healthy male C57BL/6 mice (GemPharmatech Co., Ltd., SPF grade) were taken. The intravenous administration group and the intragastric administration group respectively had 9 animals. At each time point, blood samples were taken from 3 animals via an orbital microsampling method, with a sampling volume of approximately 0.04 mL per animal per time point.
For intravenous administration of the test substance (10 mg/kg), blood samples were taken before administration and at 5 min, 15 min, 0.5 h, 1 h, 2 h, 4 h, 8 h, and 24 h after administration, and for intragastric administration of the test substance (50 mg/kg), blood samples were taken before administration and at 15 min, 0.5 h, 1 h, 2 h, 4 h, 8 h, and 24 h after administration. After anticoagulation with EDTA-K2, the blood samples were centrifuged at 6000 g at 4° C. for 5 min to separate plasma, and all plasma samples were stored at −70° C. for testing. The drug concentration of the test substance in plasma was determined by LC-MS/MS method (with tolbutamide as an internal standard), and the main pharmacokinetic parameters were calculated by Winnolin 8.3 non-compartment model.

SMILES strings stand for the structures. pIC50: −log10 of the molar value. A value given as a limit tells only on which side of the number the result lay.

T1 sequence (Q96LA9 whole entry): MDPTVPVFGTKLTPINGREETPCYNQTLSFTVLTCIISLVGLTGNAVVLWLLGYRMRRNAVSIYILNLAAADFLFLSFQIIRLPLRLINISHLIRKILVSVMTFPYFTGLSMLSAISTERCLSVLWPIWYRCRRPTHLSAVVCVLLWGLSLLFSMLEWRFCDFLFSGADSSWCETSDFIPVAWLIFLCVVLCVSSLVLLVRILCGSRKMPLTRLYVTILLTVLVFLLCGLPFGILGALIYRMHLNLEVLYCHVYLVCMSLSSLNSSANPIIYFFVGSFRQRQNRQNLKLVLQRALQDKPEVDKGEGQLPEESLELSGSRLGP

Consider `O=C(O)c1cccc(Cn2ccc3cc(Cl)cc(Cl)c32)c1F` [Compound 5, 3-((5,7-Dichloro-1H-indol-1-yl)methyl)-2-fluorobenzoic acid], for which the pIC50 on MRGPRX4 was not below 6.70. In data set [1], the AUC stood at 725 µg·h/mL, the peak level (Cmax) was 121 µg/mL and the half-life is 3.49 h. For `O=C(O)c1cccc(Cn2ccc3cc(Cl)c(Cl)cc32)c1F` [Compound 6, 3-((5,6-Dichloro-1H-indol-1-yl)methyl)-2-fluorobenzoic acid], on MRGPRX4, the pIC50 is not below 6.70. Turning to `O=C(O)c1cccc(Cn2ccc3cc(C(F)(F)F)cc(Br)c32)c1F` [Compound 15, 3-((7-Bromo-5-(trifluoromethyl)-1H-indol-1-yl)methyl)-2-fluorobenzoic acid], on MRGPRX4, the pIC50 was not below 6.70. Consider `Cc1cc(C(F)(F)F)cc2ccn(Cc3cccc(C(=O)O)c3F)c12` [Compound 16, 3-((7-Methyl-5-(trifluoromethyl)-1H-indol-1-yl)methyl)-2-fluorobenzoic acid], for which, on MRGPRX4, the pIC50 is not below 6.70. Besides, in data set [1], the AUC was found to be 612 µg·h/mL, the Cmax is 93 µg/mL and the half-life was 3.39 h. At MRGPRX4, `O=C(O)c1cccc(Cn2ncc3cc(C(F)(F)F)cc(Br)c32)c1F` [Compound 22, 3-((7-Bromo-5-(trifluoromethyl)-1H-indazol-1-yl)methyl)-2-fluorobenzoic acid] had a pIC50 of 6.30 to 6.70. Still for that read-out and setting: the result for `O=C(O)c1cccc(Cn2ncc3cc(OC(F)(F)F)cc(Br)c32)c1F` [Compound 27, 3-((7-Bromo-5-(trifluoromethoxy)-1H-indazol-1-yl)methyl)-2-fluorobenzoic acid] reads not below 6.70. As to `O=C(O)c1cccc(Cn2ncc3cc(Cl)c(Cl)c(Cl)c32)c1F` [Compound 28, 2-Fluoro-3-((5,6,7-trichloro-1H-indazol-1-yl)methyl)benzoic acid], the pIC50 against MRGPRX4 was not below 6.70. Further, in data set [1], the AUC came to 1580 µg·h/mL, the Cmax amounted to 132 µg/mL and the half-life was 9.81 h.

`O=C(O)c1cccc(Cn2ncc3cc(Cl)cc(Cl)c32)c1F` [Compound 30, 3-((5,7-Dichloro-1H-indazol-1-yl)methyl)-2-fluorobenzoic acid]: on MRGPRX4, the pIC50 was not below 6.70. Still for that read-out and setting: then `O=C(O)c1cccc(Cn2ncc3cc(Cl)cc(Br)c32)c1F` [Compound 36, 3-((7-Bromo-5-chloro-1H-indazol-1-yl)methyl)-2-fluorobenzoic acid], with not below 6.70; and `CC(c1cccc(C(=O)O)c1F)n1ncc2cc(Cl)c(Cl)c(Cl)c21` (stereo not drawn) [Compound 39, 2-Fluoro-3-(1-(5,6,7-trichloro-1H-indazol-1-yl)ethyl)benzoic acid], with not below 6.70.

`O=C(O)c1cc(Cn2ncc3cc(C(F)(F)F)cc(Br)c32)ccc1F` [Compound 41, 5-((7-Bromo-5-(trifluoromethyl)-1H-indazol-1-yl)methyl)-2-fluorobenzoic acid]: the negative-log IC50 (pIC50) against MRGPRX4 was 6.00 to 6.30. Still for that read-out and setting: the result for `O=C(O)c1cccc(Cn2ncc3c(F)c(Cl)ccc32)c1F` [Compound 48, 3-((5-Chloro-4-fluoro-1H-indazol-1-yl)methyl)-2-fluorobenzoic acid] reads 6.30 to 6.70; that for `O=C(O)c1cccc(Cn2ncc3cc(Cl)c(F)c(Cl)c32)c1F` [Compound 51, 3-((5,7-Dichloro-6-fluoro-1H-indazol-1-yl)methyl)-2-fluorobenzoic acid], not below 6.70; that for `Cc1ccc2c(ccn2Cc2cccc(C(=O)O)c2F)c1Cl` [Compound 62, 3-((4-Chloro-5-methyl-1H-indol-1-yl)methyl)-2-fluorobenzoic acid], not below 6.70. Same read-out and setting: then `O=C(O)c1cccc(Cn2ccc3c(F)c(Cl)ccc32)c1F` [Compound 66, 3-((5-Chloro-4-fluoro-1H-indol-1-yl)methyl)-2-fluorobenzoic acid], with not below 6.70. On the same count and under the same terms, the result for `N#Cc1ccc2c(ccn2Cc2cccc(C(=O)O)c2F)c1Cl` [Compound 74, 3-((4-Chloro-5-cyano-1H-indol-1-yl)methyl)-2-fluorobenzoic acid] reads not below 6.70.

As for `O=C(O)c1cccc(Cn2ccc3c(Cl)cc(Cl)cc32)c1F` [Compound 79, 3-((4,6-Dichloro-1H-indol-1-yl)methyl)-2-fluorobenzoic acid], the pIC50 at MRGPRX4 is not below 6.70. Consider `O=C(O)c1cccc(Cn2ccc3c(Cl)ccc(Cl)c32)c1F` [Compound 80, 3-((4,7-Dichloro-1H-indol-1-yl)methyl)-2-fluorobenzoic acid], for which, on MRGPRX4, the pIC50 was 6.00 to 6.30. The same measure, in the same setting: then `O=C(O)c1cccc(Cn2ccc3c(Cl)c(Cl)ccc32)c1F` [Compound 81, 3-((4,5-Dichloro-1H-indol-1-yl)methyl)-2-fluorobenzoic acid], with not below 6.70. On the same count and under the same terms, the result for `O=C(O)c1cccc(Cn2ccc3cc(Cl)cc(Cl)c32)c1Cl` [Compound 82, 2-Chloro-3-((5,7-dichloro-1H-indol-1-yl)methyl)benzoic acid] reads 6.30 to 6.70; that for `Cc1cc(OC(F)(F)F)cc2ccn(Cc3cccc(C(=O)O)c3F)c12` [Compound 87, 2-Fluoro-3-((7-methyl-5-(trifluoromethoxy)-1H-indol-1-yl)methyl)benzoic acid], not below 6.70.
